A short description of this data set: Preliminary pharmacokinetic characteristic evaluation. Type of data set: in vivo, cynomolgus monkeys. As to conditions: for half-life: cynomolgus monkey, sc, male cynomolgus monkeys, administered subcutaneously at 0.2 mg/kg, plasma, LC-MS; for half-lives: cynomolgus monkeys, administered subcutaneously. The protocol: Among the above compounds, the principle of modification for long-acting was essentially the same.
The test animals were male cynomolgus monkeys. Two animals were used for each compound. The compounds were administered subcutaneously at a dose of 0.2 mg/kg. Blood samples were collected via intravenous sampling prior to administration (0 h) and at 1 h, 2 h, 3 h, 4 h, 8 h, 12 h, 18 h, 24 h, 48 h, 96 h, 144 h, and 168 h after administration. Plasma samples were obtained by centrifugation. The plasma concentrations of the compounds were respectively determined by liquid chromatography - mass spectrometry (LC-MS).

Molecules are shown by their SMILES.

The half-life is the time in which the quantity being followed falls by half. For the molecule `CC[C@H](C)[C@H](NC(=O)[C@H](Cc1ccccc1)NC(=O)[C@H](C)NC(=O)C(C)(C)NC(=O)[C@H](CCC(N)=O)NC(=O)[C@H](C)NC(=O)[C@H](CCCCNC(=O)COCCOCCNC(=O)CCC[C@H](NC(=O)CCCCCCCCCCCCCCCCCCC(=O)O)C(=O)O)NC(=O)[C@H](CCCCN)NC(=O)[C@H](CC(=O)O)NC(=O)[C@H](CC(C)C)NC(=O)C(C)(CC(C)C)NC(=O)[C@@H](NC(=O)[C@H](CO)NC(=O)[C@H](Cc1ccc(O)cc1)NC(=O)[C@H](CC(=O)O)NC(=O)[C@H](CO)NC(=O)[C@@H](NC(=O)C(C)(Cc1ccccc1)NC(=O)[C@@H](NC(=O)CNC(=O)[C@H](CCC(N)=O)NC(=O)C(C)(C)NC(=O)[C@@H](N)Cc1ccc(O)cc1)[C@@H](C)O)[C@@H](C)O)[C@@H](C)CC)C(=O)N[C@@H](CCC(=O)O)C(=O)N[C@@H](Cc1ccc(O)cc1)C(=O)N[C@@H](CC(C)C)C(=O)N[C@@H](CC(C)C)C(=O)N[C@@H](CCC(=O)O)C(=O)NCC(=O)NCC(=O)N1CCC[C@H]1C(=O)N[C@@H](CO)C(=O)N[C@@H](CO)C(=O)NCC(=O)N[C@@H](C)C(=O)N1CCC[C@H]1C(=O)N1CCC[C@H]1C(=O)N1CCC[C@H]1C(=O)N[C@@H](CO)C(N)=O` (stereo partly shown) [Compound 2], the half-life was 83.5 h and the half-lives entry is given as “greater than 80 hours”.
As for `CC[C@H](C)[C@H](NC(=O)[C@H](Cc1ccccc1)NC(=O)[C@H](C)NC(=O)C(C)(C)NC(=O)[C@H](CCC(N)=O)NC(=O)[C@H](C)NC(=O)[C@H](CCCCNC(=O)COCCOCCNC(=O)CCC[C@H](NC(=O)CCCCCCCCCCCCCCCCCCC(=O)O)C(=O)O)NC(=O)[C@H](CCCCN)NC(=O)[C@H](CC(=O)O)NC(=O)[C@H](CC(C)C)NC(=O)C(C)(CC(C)C)NC(=O)[C@@H](NC(=O)[C@H](CO)NC(=O)[C@H](Cc1ccc(O)cc1)NC(=O)[C@H](CC(=O)O)NC(=O)[C@H](CO)NC(=O)[C@@H](NC(=O)C(C)(Cc1ccccc1F)NC(=O)[C@@H](NC(=O)CNC(=O)[C@H](CCC(N)=O)NC(=O)C(C)(C)NC(=O)[C@@H](N)Cc1ccc(O)cc1)[C@@H](C)O)[C@@H](C)O)[C@@H](C)CC)C(=O)N[C@@H](CCC(=O)O)C(=O)N[C@@H](Cc1ccc(O)cc1)C(=O)N[C@@H](CC(C)C)C(=O)N[C@@H](CC(C)C)C(=O)N[C@@H](CCC(=O)O)C(=O)NCC(=O)NCC(=O)N1CCC[C@H]1C(=O)N[C@@H](CO)C(=O)N[C@@H](CO)C(=O)NCC(=O)N[C@@H](C)C(=O)N1CCC[C@H]1C(=O)N1CCC[C@H]1C(=O)N1CCC[C@H]1C(=O)N[C@@H](CO)C(N)=O` (stereo partly shown) [Compound 6], the half-life was 94.7 h and the half-lives entry is recorded as “greater than 80 hours”.
